pIC50: −log10 of the molar value. Where two headings read alike, the source gives them in different places. Blank lines part the entries; values can stand above or below the compound they belong to.
Columns and labels:
[1] = test system: human cervical cancer cell line Hela; assay: WST-8 antiproliferative assay, Hela; format: cell-based; settings: for inhibition at 100 µM: read-out: Growth Inhibition (GI%) Hela; for pIC50: read-out: IC50 Hela
Description: (§1) Compounds 7a–j, 8a–j, 9a–c, and 10a–c were evaluated for in vitro anticancer activities against five different cancer cell lines, namely, human colorectal adenocarcinoma cell lines DLD-1, human cervical cancer cell line Hela, human pancreatic cancer cell line SUIT-2, human myelogenous leukemia cell line K562, and human hepatocellular carcinoma cell line HepG2 using WST-8 assay at concentrations of 100 µM to investigate the growth inhibition percent (GI%) of each compound using daunorubicin as a reference drug. […]. […] So, as a conclusion on the SAR study of those compounds as antiproliferative agents, the oxime moiety potentiated the anticancer activity and electron donating groups on R1 and R2 played an important role on this activity. Moreover, the sulfamoyl moiety on R3 seems to play a potential role in the activity of the prepared compounds (Table 1).
(§2) All selected compounds and daunorubicin were recorded as the minimum concentration required to inhibit half cell growth (IC50) and the results are listed in Table 2.
(§3) Evaluation of anticancer activity was performed according to the standard water-soluble tetrazolium-8 (WST-8) assay at the Faculty of Engineering, Yamagata University, Yonezawa, Japan, using an MTP-310 absorbance microplate reader. The EGFR inhibitory assay was carried out at the Faculty of Engineering, Yamagata University, Yonezawa, Japan, according to the protocol enzyme linked immunosorbent assay (ELISA) kits (Douset sandwich ELISA test, recombinant mouse EGFR). The JNK-2 inhibitory assay was performed at the Faculty of Engineering, Yamagata University, Yonezawa, Japan, according to the protocol of enzyme-linked immunosorbent assay (ELISA), the assay was carried out using the JNK-2 kit (Simple Step ELISA, pT183/Y185, Abcam Company, Cambridge, CB2 0AX, UK). Apoptosis and cell cycle analysis was performed at Faculty of medicine, Yamagata University, Yamagata, Japan, using BD FACS melody. Molecular docking was performed at the Nano Medical Engineering Laboratory, RIKEN Cluster for Pioneering Researchers, RIEKN, Japan, using ICM-Pro 3.8 software (MolSoft L.L.C., San Diego, CA, USA).
(§4) According to the standard water-soluble tetrazolium-8 (WST-8) assay, the current synthesized compounds have been tested for their anticancer activities against different five cancer cell lines; DLD-1, Hela, K562, SUIT-2, and HepG2 and daunorubicin was used as reference drug by the WST-8 assay. The five cells were maintained in a suspension culture, (Dulbecco’s modified eagle medium (DMEM) for SUIT-2, Hela, and HepG2 or PRIM for K562 and DLD), supplemented with 5% FBS (Fetal Bovine Serum) containing 1% of a penicillin-streptomycin (1:1) mixture. A 100 μL aliquot of cells (10,000 cells/mL) was added to a 96 well plate and incubated for 24 h at 37 °C in a humidified incubator containing 5% CO2 in the air. […] Then A 10 μL WST-8 solution (mixture of WST-8 and 1-methoxy PMS) was added to each well and the incubation continued for 3 h. The visible absorbance at 450 nm and 630 nm as the reference wavelength of each well was quantified using an MTP-310 absorbance microplate reader. Daunorubicin was used as a positive control. The results of cytotoxicity were recorded as growth inhibition percentages and as IC50 values.

[2] = test system: human myelogenous leukemia cell line K562; assay: WST-8 antiproliferative assay, K562; format: cell-based; settings: Homo sapiens
Description: as §1, §2, §3, §4

[3] = Nitric oxide release, Griess colorimetric method; format: physicochemical; settings: phosphate buffer pH 7.4, N-acetylcysteine
Description: For the indirect determination of NO, the Griess colorimetric approach was utilized, which includes spectrophotometry measurements of the stable decomposition products NO2^− and NO3^−. This method requires that NO3^− is first reduced to NO2^− and then NO2^− is determined by the Griess reaction that includes two steps, the first step is a diazotization reaction in which the NO-derived nitrogen agent, dinitrogen trioxide (N2O3), which is produced by the spontaneous oxidation of NO with sulfanilamide to form the diazonium ion, is used. […] In order to evaluate thiol-induced NO generation from the appropriate compounds, including NO-donating oximes 8a–b, 8d–i, and 10a–c, they were incubated in aqueous phosphate buffer of pH 7.4 in the presence of excess N-acetylcysteine, which serves as a source of thiols that are essential for the release of NO from oximes. The signal intensity of the dye is proportional to the amount of NO released. To quantify the amount of NO released, a standard curve was made by measuring the change in absorbance of various concentrations of standard sodium nitrite solutions treated by the same way. […] At the first hour, the amount of nitric oxide released increased in compounds 8i, 8b, and 8h, while the maximum release of nitric oxide occurring in compounds 8b and 8h was at 2 h. Then, the amount of nitic oxide released declined, which may explain the biological importance of oxime moiety as a source of nitric oxide release in comparison with ketone intermediates 7a–j and 9a–c, as shown in the anticancer activity of oxime derivatives.
The nitrite calibration curve in addition to the absorbance of the tested compounds were measured on Shimadzu UV-160, UV-Visible spectrophotometer (Shimadzu, Tokyo, Japan). The tested compounds were prepared as solutions in DMF and diluted with the buffer system until a concentration of 100 mM. N-Acetyl cysteine solution was prepared in a concentration of 500 mM in methanol. Griess reagent consists of 0.1% w/v NED solution in water and sulfanilamide solution (1% w/v of sulfanilamide in 5% w/v phosphoric acid). Nitrite standard solution (0.1 M sodium nitrite in water) stock solution was prepared, from which a dilute solution of 100 μM nitrite solution was prepared by dilution 1 mL of the stock solution to 1000 mL with phosphate buffer of pH 7.4. From this solution, 4 serials 2-fold dilutions were performed to generate different concentrations of the nitrite solution (100.00, 50.00, 25.00, and 12.50 μM) and these concentrations were used for nitrite calibration curve.
Sulfanilamide and NEDD solutions were kept at 25 °C; […] of sulfanilamide solution was added to each dilution of the prepared standard nitrite solution. The mixture was left at 25 °C for 5–10 min protected from light. To this mixture, […] of the NEDD solution was added and the mixture was again left for 5–10 min at 25 °C protected from light. […] A plot of the average absorbance value for each concentration of the nitrite standard solution as a function of “Y” against nitrite concentration as a function of “X” was constructed to generate a standard nitrite calibration curve at pH 7.4.
The amount of NO released from the tested compounds 8a–b, 8d–I, and 10a–c was measured using the Griess colorimetric method either in phosphate buffer of pH 7.4 in the presence of N-acetyl cysteine, which serves as a source of thiols. The amount of NO released from the tested compounds was measured relative to NO released from standard sodium nitrite solution.
Different solutions of the tested compounds 8a–b, 8d–i, and 10a–c in DMF were diluted using phosphate buffer of pH 7.4 till a final concentration of 100 mM (test solutions). To […] of different test solutions, […] of N-acetyl cysteine solution was added and the obtained solution was kept in an incubator at 37 °C (treated solutions). […]

[4] = WST-8 assay, six concentrations 1-100 µM
[5] = K562, 100 µM, WST-8 assay, read-out: Growth Inhibition (GI%) K562
[6] = K562, WST-8 assay, six concentrations 1-100 µM, read-out: IC50 K562

pIC50 [1, 4]: 4.66
pIC50 [2, 6]: 4.81
Compound: COc1cc(/C(C)=N/O)ccc1OC(=O)c1cc(-c2ccccc2)n(-c2ccc(S(N)(=O)=O)cc2)n1 [Compound 8f, (E)–4–(1–(Hydroxyimino)ethyl)–2–methoxyphenyl 5–phenyl–1–(4–sulfamoyl phenyl)–1H–pyrazole–3–carboxylate]
inhibition at 100 µM ([1]; 100 µM, WST-8 assay): 107%
inhibition at 100 µM [2, 5]: 76%
Amount of NO Released (mol/mol) 1 h [3]: 0.096 ± 0.036 mol/mol
Amount of NO Released (mol/mol) 2 h [3]: 0.116 ± 0.045 mol/mol
Amount of NO Released (mol/mol) 3 h [3]: 0.079 ± 0.030 mol/mol
Amount of NO Released (mol/mol) 4 h [3]: 0.048 ± 0.018 mol/mol

pIC50 [2, 6]: 4.66
Compound: COc1cc(/C(C)=N/O)ccc1OC(=O)c1cc(-c2ccccc2)n(-c2ccccc2)n1 [Compound 8a, (E)–4–(1–(Hydroxyimino)ethyl)2–methoxyphenyl 1,5–diphenyl–1H–pyrazole–3–carboxylate]
inhibition at 100 µM ([1]; 100 µM, WST-8 assay): 33%
inhibition at 100 µM [2, 5]: 94%
Amount of NO Released (mol/mol) 1 h [3]: 0.095 ± 0.036 mol/mol
Amount of NO Released (mol/mol) 2 h [3]: 0.121 ± 0.047 mol/mol
Amount of NO Released (mol/mol) 3 h [3]: 0.108 ± 0.042 mol/mol
Amount of NO Released (mol/mol) 4 h [3]: 0.056 ± 0.022 mol/mol

Compound: COc1cc(/C(C)=N/O)ccc1OC(=O)c1cc(-c2ccc(Cl)cc2)n(-c2ccccc2)n1 [Compound 8d, (E)–4–(1–(Hydroxyimino)ethyl)–2–methoxyphenyl 5–(4–chlorophenyl)–1–phenyl–1H–pyrazole–3–carboxylate]
inhibition at 100 µM [1]: 48%
pIC50 [1]: 4.24
inhibition at 100 µM ([2]; K562, read-out: Growth Inhibition (GI%) K562): 95%
pIC50 ([2]; K562, read-out: IC50 K562, WST-8 assay, six concentrations 1-100 µM): 5.05
Amount of NO Released (mol/mol) 1 h [3]: 0.096 ± 0.036 mol/mol
Amount of NO Released (mol/mol) 2 h [3]: 0.106 ± 0.040 mol/mol
Amount of NO Released (mol/mol) 3 h [3]: 0.101 ± 0.038 mol/mol
Amount of NO Released (mol/mol) 4 h [3]: 0.079 ± 0.030 mol/mol

pIC50 [2, 6]: 4.80
Compound: C/C(=N\O)c1ccc(NC(=O)c2cc(-c3ccccc3)n(-c3ccc(S(N)(=O)=O)cc3)n2)cc1 [Compound 10a, (E)–N–(4–(1–(Hydroxyimino)ethyl)phenyl)–5–phenyl–1–(4–sulfamoylphenyl)–1H–pyrazole–3–carboxamide]
inhibition at 100 µM ([1]; 100 µM, WST-8 assay): 0%
inhibition at 100 µM [2, 5]: 84%
Amount of NO Released (mol/mol) 1 h [3]: 0.054 ± 0.023 mol/mol
Amount of NO Released (mol/mol) 2 h [3]: 0.108 ± 0.043 mol/mol
Amount of NO Released (mol/mol) 3 h [3]: 0.069 ± 0.024 mol/mol
Amount of NO Released (mol/mol) 4 h [3]: 0.036 ± 0.012 mol/mol

pIC50 [1, 4]: 5.10
pIC50 [2, 6]: 5.12
Compound: COc1cc(/C(C)=N/O)ccc1OC(=O)c1cc(-c2ccc(C)cc2)n(-c2ccc(S(N)(=O)=O)cc2)n1 [Compound 8g, (E)–4–(1–(Hydroxyimino)ethyl)–2–methoxyphenyl 1–(4–sulfamoylphenyl)–5–p–tolyl–1H–pyrazole–3–carboxylate]
inhibition at 100 µM ([1]; 100 µM, WST-8 assay): 78%
inhibition at 100 µM [2, 5]: 87%
Amount of NO Released (mol/mol) 1 h [3]: 0.083 ± 0.035 mol/mol
Amount of NO Released (mol/mol) 2 h [3]: 0.154 ± 0.044 mol/mol
Amount of NO Released (mol/mol) 3 h [3]: 0.141 ± 0.039 mol/mol
Amount of NO Released (mol/mol) 4 h [3]: 0.089 ± 0.019 mol/mol

pIC50 [1, 4]: 4.66
pIC50 [2, 6]: 4.70
Compound: COc1ccc(-c2cc(C(=O)Oc3ccc(/C(C)=N/O)cc3OC)nn2-c2ccccc2)cc1OC [Compound 8e, (E)–4–(1–(Hydroxyimino)ethyl)–2–methoxyphenyl 5–(3,4–dimethoxy phenyl)–1–phenyl–1H–pyrazole–3–carboxylate]
inhibition at 100 µM ([1]; 100 µM, WST-8 assay): 77%
inhibition at 100 µM [2, 5]: 93%
Amount of NO Released (mol/mol) 1 h [3]: 0.064 ± 0.022 mol/mol
Amount of NO Released (mol/mol) 2 h [3]: 0.120 ± 0.046 mol/mol
Amount of NO Released (mol/mol) 3 h [3]: 0.081 ± 0.030 mol/mol
Amount of NO Released (mol/mol) 4 h [3]: 0.048 ± 0.018 mol/mol

Compound: COc1ccc(-c2cc(C(=O)Nc3ccc(/C(C)=N/O)cc3)nn2-c2ccc(S(N)(=O)=O)cc2)cc1 [Compound 10b, (E)–N–(4–(1–(Hydroxyimino)ethyl)phenyl)–5–(4–methoxyphenyl)–1–(4–sulfamoylphenyl)–1H–pyrazole–3–carboxamide]
inhibition at 100 µM ([1]; 100 µM, WST-8 assay): 2%
inhibition at 100 µM [2, 5]: 84%
Amount of NO Released (mol/mol) 1 h [3]: 0.095 ± 0.035 mol/mol
Amount of NO Released (mol/mol) 2 h [3]: 0.114 ± 0.046 mol/mol
Amount of NO Released (mol/mol) 3 h [3]: 0.079 ± 0.031 mol/mol
Amount of NO Released (mol/mol) 4 h [3]: 0.031 ± 0.018 mol/mol

pIC50 [1, 4]: 4.49
pIC50 [2, 6]: 4.89
Compound: COc1cc(/C(C)=N/O)ccc1OC(=O)c1cc(-c2ccc(C)cc2)n(-c2ccccc2)n1 [Compound 8b, (E)–4–(1–(Hydroxyimino)ethyl)–2–methoxyphenyl 1–phenyl–5–p–tolyl–1H–pyrazole–3–carboxylate]
inhibition at 100 µM ([1]; 100 µM, WST-8 assay): 60%
inhibition at 100 µM [2, 5]: 99%
Amount of NO Released (mol/mol) 1 h [3]: 0.102 ± 0.039 mol/mol
Amount of NO Released (mol/mol) 2 h [3]: 0.159 ± 0.019 mol/mol
Amount of NO Released (mol/mol) 3 h [3]: 0.105 ± 0.025 mol/mol
Amount of NO Released (mol/mol) 4 h [3]: 0.095 ± 0.030 mol/mol
